Laboratory results: patent US20240058283A1, “THE MODE OF ACTION OF N-MeDCPA ON TRPC CHANNELS” (West Virginia University Board of Governors on Behalf of …, priority 2022, published 2024)

Columns and labels:
[1] = tested on: CYP enzymes; experiment: Induction of CYP enzymes; type: in vitro ADME
[2] = Metabolite formation in mouse liver S9; type: in vitro ADME; settings: cofactors-fortified mouse liver S9, 37 degrees centigrade, 1 hour; LC-MS/MS
Description: Drug Synthesis—ELP-004 (N-MeDCPA) was synthesized as described in U.S. patent Ser. No. 10/682,320. […] Metabolites formed after incubations using either cofactors-fortified mouse or human liver S9 (mouse liver S9; human liver S9) at 37 degrees centigrade for 1 hour. The reaction was quenched by ultracentrifugation. The supernatant was analyzed using LC-MS/MS analysis using Accela LC (Thermo Scientific, Inc., San Jose, CA) coupled to an LTQ LX or to LTQ Orbitrap XL.
ELP-004 is N-(3,4-dichlorophenyl)-N-methylpropanamide. The core structure of ELP-004 is an aniline compound. Aniline compounds, generally, have a high risk of forming reactive metabolites. ELP-004 was specifically designed to preclude formation of reactive metabolites. Methylation of the amide nitrogen improves metabolic stability.

[3] = tested on: Mouse splenic monocytes; experiment: Osteoclast resorption (pit formation) on Corning osteo-assay surface plates; type: cell-based; settings: 1 ng/ml RANKL, 2 ng/ml TNFα, 50 ng/ml m-CSF; 7, 14 or 21 days; 100 nM ELP-004
Description: Mouse splenic monocytes were induced to differentiate by the addition of 1 ng/ml RANKL, 2 ng/ml TNFα and 50 ng/ml m-CSF. The panels of FIG. 6 show a representative photomicrograph of cells after 7, 14, or 21 days of culture on Corning osteo-assay surface plates with RANKL+mCSF+TNFα or with the addition of 100 nM ELP-004.

[4] = target: T1, TRPC4 (Homo sapiens, UniProt Q9UBN4); experiment: FIG. 4 TRPC4 overexpressing cells, fura, OAG in the presence of Ca2+; type: cell-based; settings: TRPC4 O/E cells, Ca2+ present, N=4
T1 construct: expressed in transfected cells; host or cells: HEK293 (transient transfection)
T1 sequence (Q9UBN4 1-977): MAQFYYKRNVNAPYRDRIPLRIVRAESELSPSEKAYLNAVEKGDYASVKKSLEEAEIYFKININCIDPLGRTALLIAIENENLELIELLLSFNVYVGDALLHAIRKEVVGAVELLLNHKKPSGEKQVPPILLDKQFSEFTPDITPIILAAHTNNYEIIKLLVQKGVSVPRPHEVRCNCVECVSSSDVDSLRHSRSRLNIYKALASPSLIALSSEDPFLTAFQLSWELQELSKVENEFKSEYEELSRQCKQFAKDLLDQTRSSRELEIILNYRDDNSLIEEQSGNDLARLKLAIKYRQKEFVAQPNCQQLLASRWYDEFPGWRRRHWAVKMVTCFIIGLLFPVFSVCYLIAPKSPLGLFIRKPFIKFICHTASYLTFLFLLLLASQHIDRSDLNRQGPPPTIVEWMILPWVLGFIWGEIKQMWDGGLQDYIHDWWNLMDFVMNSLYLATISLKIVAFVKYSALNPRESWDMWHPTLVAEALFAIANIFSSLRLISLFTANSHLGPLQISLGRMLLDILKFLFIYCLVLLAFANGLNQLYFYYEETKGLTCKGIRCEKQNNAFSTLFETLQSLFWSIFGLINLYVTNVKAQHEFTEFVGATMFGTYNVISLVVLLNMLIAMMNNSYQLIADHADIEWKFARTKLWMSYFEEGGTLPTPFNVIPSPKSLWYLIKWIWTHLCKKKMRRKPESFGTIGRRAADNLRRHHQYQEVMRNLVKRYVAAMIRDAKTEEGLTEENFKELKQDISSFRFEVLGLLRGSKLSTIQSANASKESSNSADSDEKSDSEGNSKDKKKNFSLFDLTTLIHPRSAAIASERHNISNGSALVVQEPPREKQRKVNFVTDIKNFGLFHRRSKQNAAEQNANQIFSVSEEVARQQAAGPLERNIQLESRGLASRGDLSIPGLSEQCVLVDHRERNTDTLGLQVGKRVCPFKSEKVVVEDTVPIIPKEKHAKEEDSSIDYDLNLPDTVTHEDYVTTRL
Text: The assay was done in the presence of Ca^2+. OAG (1-Oleoyl-2-acetyl-sn-glycerol) is a cell permeable DAG analog and directly activates these TRPC channels (i.e. TRPC4 and TRPC5).

[5] = tested on: bone erosion in collagen-induced arthritis (CIA); experiment: Collagen-induced arthritis (CIA) bone erosion in mice; type: in vivo
Text: Inflammatory arthritis often requires treatments with serious side effects. Later in arthritis, bone erosion is a major problem that causes severe pain and debilitation. There is no small molecule drug available to specifically treat arthritis bone erosion. […] In previous studies, we had focused on store-operated Ca^2+ entry as the target of ELP-004, since Orail is required for osteoclast differentiation and ELP-004 blocks RANKL-induced osteoclast differentiation and SOCE at similar concentrations. However, ELP-004 blocks bone erosion in vivo at a remarkable 1000-fold higher efficacy, leading us to question the identity of the critical ion channel. To address this question, we performed a series of ELP-004 dose responses on HEK293 cells overexpressing different combinations of STIM/Orai, TRPC channels or CaV1.2. Remarkably, all TRPC channels were highly sensitive to ELP-004, leading us to consider the possibility that TRPC channels are the true target in arthritis-induced bone erosion. We are currently assessing the possibility that ELP-004 may inhibit osteoclastogenesis with higher efficacy when driven by inflammatory cytokines, both in vitro and in vivo. […]

[6] = Ability to cross the blood brain barrier
Description: ELP-004 was evaluated for its ability to cross the blood brain barrier. […] Other medications, such as for example but not limited to bupropion are known to cause problems due to dopamine transporter binding.

## CCC(=O)N(C)c1ccc(Cl)c(Cl)c1 [ELP-004, N-(3,4-dichlorophenyl)-N-methylpropanamide]
[1]
  effect on induction of CYP enzymes: no deleterious effect on induction of CYP enzymes
[2]
  formation of reactive or toxic metabolites: No reactive or toxic compounds were formed
[3]
  pit formation (osteoclast resorption): inhibited pit formation
[4]
  IC50: 172 nM
[5]; in vivo versus in vitro concentrations
  efficacy of blocking bone erosion in vivo relative to RANKL-induced osteoclast differentiation and SOCE: 1000 fold
[5]; mice, even after symptoms of arthritis were measurable
  bone erosion in collagen-induced arthritis: strongly suppressed bone erosion
[6]
  crossing of the blood brain barrier: does not cross the blood brain barrier
